{"source": "patent US20110053773A1", "about": "“METHODS OF IMPROVING NUTRITIONAL VALUE OF PLANTS” (UNIVERSITY OF TENNESSEE RESEARCH FOUNDATION, priority 2009, published 2011)", "key": {"[1]": {"tested_on": "sweet corn variety 'Incredible'", "assay": "Sugar and key antioxidant content of sweet corn (Example 1, Table 15)", "format": "in vivo, Zea mays var. rugosa", "conditions": "rates g ai/ha: Nicosulfuron 35, Mesotrione 105, Topramezone 18, Isoxadifen-ethyl 13, all incl. treated check with atrazine 560 g ai/ha + 1% v/v crop oil concentrate", "from_the_text": "Herbicide treatments were applied in a water carrier at 23 gallons of solution per acre on a field site near Knoxville, Tenn. and Painter, Va. […] All treatments included a PRE application of atrazine plus metolachlor in order to maintain weed free conditions. In addition, all POST treatments (including the treated check) included atrazine at 560 g ai/ha and crop oil concentrate at 1% v/v. […] Sweet corn was harvested from the center two rows of each four row plot and weighed in the husk."}, "[2]": {"tested_on": "sweet corn cultivars 'Merit', 'Temptation', 'Incredible'", "assay": "Kernel carotenoids of sweet corn after mesotrione and atrazine (Example 3)", "format": "in vivo", "set-up": "Kernel carotenoids: Lutein / Kernel carotenoids: Zeaxanthin: unit not given here", "conditions": "mesotrione 105, atrazine 560 g ai/ha", "description": "Studies were conducted in a field in Knoxville, Tenn. to ascertain the growth, stress tolerance and nutritional quality differences following postemergence applications of herbicides mesotrione and atrazine, alone and in mixtures together, on the young sweet corn cultivars: ‘Merit’ (yellow-kernel sensitive genotype), ‘Temptation’ (bicolor tolerant genotype), and ‘Incredible’ (yellow-kernel moderately sensitive genotype).\nHerbicide treatments were applied as follows: 1) untreated control; 2) mesotrione (meso) at 105 g ai/ha EPOST; 3) mesotrione at 105+atrazine at 560 g ai/ha EPOST; 4) atrazine at 560 g ai/ha EPOST; 5) mesotrione at 105 g ai/ha LPOST; 6) mesotrione at 105+atrazine at 560 g ai/ha LPOST; and 7) atrazine at 560 g ai/ha LPOST. Visual ratings of plant growth were taken during season, and kernels for carotenoids were measured at harvest."}, "'Riviera' bermudagrass [3]": {"tested_on": "'Riviera' bermudagrass", "assay": "Visual tissue whitening of bermudagrass after mesotrione (Example 5)", "format": "in vivo, Cynodon dactylon (L.) Pers.", "conditions": "0.28 kg/ha postemergence", "from_the_text": "(§1) Greenhouse and laboratory studies were initiated with ‘Riviera’ bermudagrass (Cynodon dactylon (L.) Pers.) treated postemergence with mesotrione at 0.28 kg×ha^−1 and sampled for tissue pigment concentrations at 0, 3, 7, 14, 21, 28 and 35 days after treatment (DAT; Table 16). […] Due to the antioxidant activity of these carotenoid pigments, these increases should improve bermudagrass stress tolerance (Kopsell et al., 2010)."}, "'Riviera' bermudagrass [4]": {"tested_on": "'Riviera' bermudagrass", "assay": "Leaf tissue pigment concentrations of bermudagrass after mesotrione (Example 5, Table 16)", "format": "in vivo, Cynodon dactylon (L.) Pers.", "conditions": "for Blade tissue pigments: Beta-carotene / Blade tissue pigments: Lutein / Blade tissue pigments: Phytoene / Blade tissue pigments: Total Carotenoids / Blade tissue pigments: Violaxanthin / Blade tissue pigments: Zeaxanthin: 0.28 kg ai×ha^−1", "from_the_text": "as §1"}, "[5]": {"conditions": "'Incredible' moderately sensitive genotype, EPOST"}, "[6]": {"conditions": "'Incredible' moderately sensitive genotype, LPOST"}, "[7]": {"conditions": "'Merit' sensitive genotype, EPOST"}, "[8]": {"conditions": "'Merit' sensitive genotype, LPOST"}}}
{"compound": "CS(=O)(=O)c1ccc(C(=O)C2C(=O)CCCC2=O)c([N+](=O)[O-])c1", "note": "[Mesotrione*CALLISTO, mesotrione]", "values": [{"measurement": "Fructose, percent increase", "setting": "[1]", "result": 18, "unit": "%"}, {"measurement": "Gamma-tocopherol, percent increase", "setting": "[1]", "result": 5, "unit": "%"}, {"measurement": "Glucose, percent increase", "setting": "[1]", "result": 19, "unit": "%"}, {"measurement": "Lutein, percent increase", "setting": "[1]", "result": 17, "unit": "%"}, {"measurement": "Maltose, percent increase", "setting": "[1]", "result": 15, "unit": "%"}, {"measurement": "Sucrose, percent increase", "setting": "[1]", "result": "−32", "unit": "%"}, {"measurement": "Total Sugars, percent increase", "setting": "[1]", "result": "−4", "unit": "%"}, {"measurement": "Zeaxanthin, percent increase", "setting": "[1]", "result": 1, "unit": "%"}, {"measurement": "antheraxanthin, percent increase", "setting": "[1]", "result": 14, "unit": "%"}, {"measurement": "Lutein % change from untreated control", "setting": "[2]; [5]", "result": "−6.4", "unit": "%"}, {"measurement": "Zeaxanthin % change from untreated control", "setting": "[2]; [5]", "result": "−7.4", "unit": "%"}, {"measurement": "Kernel carotenoids: Lutein", "setting": "[2]; 'Incredible' moderately sensitive genotype, EPOST, untreated 0.328", "result": 0.307}, {"measurement": "Kernel carotenoids: Zeaxanthin", "setting": "[2]; 'Incredible' moderately sensitive genotype, EPOST, untreated 0.448", "result": 0.415}, {"measurement": "Lutein % change from untreated control", "setting": "[2]; [6]", "result": "+4.6%"}, {"measurement": "Zeaxanthin % change from untreated control", "setting": "[2]; [6]", "result": "+1.3%"}, {"measurement": "Kernel carotenoids: Lutein", "setting": "[2]; 'Incredible' moderately sensitive genotype, LPOST, untreated 0.328", "result": 0.343}, {"measurement": "Kernel carotenoids: Zeaxanthin", "setting": "[2]; 'Incredible' moderately sensitive genotype, LPOST, untreated 0.448", "result": 0.454}, {"measurement": "Lutein % change from untreated control", "setting": "[2]; [7]", "result": "+7.8%"}, {"measurement": "Zeaxanthin % change from untreated control", "setting": "[2]; [7]", "result": "+12.0%"}, {"measurement": "Kernel carotenoids: Zeaxanthin", "setting": "[2]; 'Merit' sensitive genotype, EPOST, untreated 0.509", "result": 0.570}, {"measurement": "Kernel carotenoids: Lutein", "setting": "[2]; [8]", "result": 0.577}, {"measurement": "Lutein % change from untreated control", "setting": "[2]; [8]", "result": "+8.7%"}, {"measurement": "Zeaxanthin % change from untreated control", "setting": "[2]; [8]", "result": "−3.7", "unit": "%"}, {"measurement": "Kernel carotenoids: Zeaxanthin", "setting": "[2]; 'Merit' sensitive genotype, LPOST, untreated 0.509", "result": 0.409}, {"measurement": "visual tissue whitening, maximum", "setting": "'Riviera' bermudagrass [3]; by 14 DAT", "result": 38, "unit": "%"}, {"measurement": "recovery of discolored tissue", "setting": "'Riviera' bermudagrass [3]; by 21 DAT", "result": "re-greening of discolored tissue was observed"}, {"measurement": "Blade tissue pigments: Beta-carotene", "setting": "'Riviera' bermudagrass [4]; 0 days after treatment", "result": 17.2, "unit": "mg/100 g fresh weight"}, {"measurement": "Blade tissue pigments: Lutein", "setting": "'Riviera' bermudagrass [4]; 0 days after treatment", "result": 23.6, "unit": "mg/100 g fresh weight"}, {"measurement": "Blade tissue pigments: Phytoene", "setting": "'Riviera' bermudagrass [4]; 0 days after treatment", "result": 0.0, "unit": "mg/100 g fresh weight"}, {"measurement": "Blade tissue pigments: Total Carotenoids", "setting": "'Riviera' bermudagrass [4]; 0 days after treatment", "result": 57.5, "unit": "mg/100 g fresh weight"}, {"measurement": "Blade tissue pigments: Violaxanthin", "setting": "'Riviera' bermudagrass [4]; 0 days after treatment", "result": 6.9, "unit": "mg/100 g fresh weight"}, {"measurement": "Blade tissue pigments: Zeaxanthin", "setting": "'Riviera' bermudagrass [4]; 0 days after treatment", "result": 3.2, "unit": "mg/100 g fresh weight"}, {"measurement": "Blade tissue pigments: Beta-carotene", "setting": "'Riviera' bermudagrass [4]; 3 days after treatment", "result": 11.6, "unit": "mg/100 g fresh weight"}, {"measurement": "Blade tissue pigments: Lutein", "setting": "'Riviera' bermudagrass [4]; 3 days after treatment", "result": 14.8, "unit": "mg/100 g fresh weight"}, {"measurement": "Blade tissue pigments: Phytoene", "setting": "'Riviera' bermudagrass [4]; 3 days after treatment", "result": 37.5, "unit": "mg/100 g fresh weight"}, {"measurement": "Blade tissue pigments: Total Carotenoids", "setting": "'Riviera' bermudagrass [4]; 3 days after treatment", "result": 42.9, "unit": "mg/100 g fresh weight"}, {"measurement": "Blade tissue pigments: Violaxanthin", "setting": "'Riviera' bermudagrass [4]; 3 days after treatment", "result": 1.6, "unit": "mg/100 g fresh weight"}, {"measurement": "Blade tissue pigments: Zeaxanthin", "setting": "'Riviera' bermudagrass [4]; 3 days after treatment", "result": 3.1, "unit": "mg/100 g fresh weight"}, {"measurement": "Blade tissue pigments: Beta-carotene", "setting": "'Riviera' bermudagrass [4]; 7 days after treatment", "result": 7.4, "unit": "mg/100 g fresh weight"}, {"measurement": "Blade tissue pigments: Lutein", "setting": "'Riviera' bermudagrass [4]; 7 days after treatment", "result": 14.1, "unit": "mg/100 g fresh weight"}, {"measurement": "Blade tissue pigments: Phytoene", "setting": "'Riviera' bermudagrass [4]; 7 days after treatment", "result": 38.0, "unit": "mg/100 g fresh weight"}, {"measurement": "Blade tissue pigments: Total Carotenoids", "setting": "'Riviera' bermudagrass [4]; 7 days after treatment", "result": 35.6, "unit": "mg/100 g fresh weight"}, {"measurement": "Blade tissue pigments: Violaxanthin", "setting": "'Riviera' bermudagrass [4]; 7 days after treatment", "result": 1.6, "unit": "mg/100 g fresh weight"}, {"measurement": "Blade tissue pigments: Zeaxanthin", "setting": "'Riviera' bermudagrass [4]; 7 days after treatment", "result": 3.3, "unit": "mg/100 g fresh weight"}, {"measurement": "Blade tissue pigments: Beta-carotene", "setting": "'Riviera' bermudagrass [4]; 14 days after treatment", "result": 7.6, "unit": "mg/100 g fresh weight"}, {"measurement": "Blade tissue pigments: Lutein", "setting": "'Riviera' bermudagrass [4]; 14 days after treatment", "result": 16.4, "unit": "mg/100 g fresh weight"}, {"measurement": "Blade tissue pigments: Phytoene", "setting": "'Riviera' bermudagrass [4]; 14 days after treatment", "result": 11.7, "unit": "mg/100 g fresh weight"}, {"measurement": "Blade tissue pigments: Total Carotenoids", "setting": "'Riviera' bermudagrass [4]; 14 days after treatment", "result": 47.2, "unit": "mg/100 g fresh weight"}, {"measurement": "Blade tissue pigments: Violaxanthin", "setting": "'Riviera' bermudagrass [4]; 14 days after treatment", "result": 3.5, "unit": "mg/100 g fresh weight"}, {"measurement": "Blade tissue pigments: Zeaxanthin", "setting": "'Riviera' bermudagrass [4]; 14 days after treatment", "result": 3.8, "unit": "mg/100 g fresh weight"}, {"measurement": "Blade tissue pigments: Beta-carotene", "setting": "'Riviera' bermudagrass [4]; 21 days after treatment", "result": 11.4, "unit": "mg/100 g fresh weight"}, {"measurement": "Blade tissue pigments: Lutein", "setting": "'Riviera' bermudagrass [4]; 21 days after treatment", "result": 21.2, "unit": "mg/100 g fresh weight"}, {"measurement": "Blade tissue pigments: Phytoene", "setting": "'Riviera' bermudagrass [4]; 21 days after treatment", "result": 0.0, "unit": "mg/100 g fresh weight"}, {"measurement": "Blade tissue pigments: Total Carotenoids", "setting": "'Riviera' bermudagrass [4]; 21 days after treatment", "result": 60.1, "unit": "mg/100 g fresh weight"}, {"measurement": "Blade tissue pigments: Violaxanthin", "setting": "'Riviera' bermudagrass [4]; 21 days after treatment", "result": 4.0, "unit": "mg/100 g fresh weight"}, {"measurement": "Blade tissue pigments: Zeaxanthin", "setting": "'Riviera' bermudagrass [4]; 21 days after treatment", "result": 4.7, "unit": "mg/100 g fresh weight"}, {"measurement": "Blade tissue pigments: Beta-carotene", "setting": "'Riviera' bermudagrass [4]; 28 days after treatment", "result": 18.9, "unit": "mg/100 g fresh weight"}, {"measurement": "Blade tissue pigments: Lutein", "setting": "'Riviera' bermudagrass [4]; 28 days after treatment", "result": 32.1, "unit": "mg/100 g fresh weight"}, {"measurement": "Blade tissue pigments: Phytoene", "setting": "'Riviera' bermudagrass [4]; 28 days after treatment", "result": 0.0, "unit": "mg/100 g fresh weight"}, {"measurement": "Blade tissue pigments: Total Carotenoids", "setting": "'Riviera' bermudagrass [4]; 28 days after treatment", "result": 77.2, "unit": "mg/100 g fresh weight"}, {"measurement": "Blade tissue pigments: Violaxanthin", "setting": "'Riviera' bermudagrass [4]; 28 days after treatment", "result": 2.8, "unit": "mg/100 g fresh weight"}, {"measurement": "Blade tissue pigments: Zeaxanthin", "setting": "'Riviera' bermudagrass [4]; 28 days after treatment", "result": 5.7, "unit": "mg/100 g fresh weight"}, {"measurement": "Blade tissue pigments: Beta-carotene", "setting": "'Riviera' bermudagrass [4]; 35 days after treatment", "result": 21.2, "unit": "mg/100 g fresh weight"}, {"measurement": "Blade tissue pigments: Lutein", "setting": "'Riviera' bermudagrass [4]; 35 days after treatment", "result": 37.1, "unit": "mg/100 g fresh weight"}, {"measurement": "Blade tissue pigments: Phytoene", "setting": "'Riviera' bermudagrass [4]; 35 days after treatment", "result": 0.0, "unit": "mg/100 g fresh weight"}, {"measurement": "Blade tissue pigments: Total Carotenoids", "setting": "'Riviera' bermudagrass [4]; 35 days after treatment", "result": 92.7, "unit": "mg/100 g fresh weight"}, {"measurement": "Blade tissue pigments: Violaxanthin", "setting": "'Riviera' bermudagrass [4]; 35 days after treatment", "result": 6.8, "unit": "mg/100 g fresh weight"}, {"measurement": "Blade tissue pigments: Zeaxanthin", "setting": "'Riviera' bermudagrass [4]; 35 days after treatment", "result": 6.4, "unit": "mg/100 g fresh weight"}, {"measurement": "pigments in treated plants", "setting": "'Riviera' bermudagrass [4]; 0.28 kg/ha postemergence, after initial decrease with tissue whitening", "result": "most recovered to untreated levels by 21 DAT"}, {"measurement": "lutein, β-carotene, and zeaxanthin versus untreated control plants", "setting": "'Riviera' bermudagrass [4]; 0.28 kg/ha postemergence, at 35 DAT", "result": "accumulated to levels exceeding untreated control plants"}, {"measurement": "phytoene detection", "setting": "'Riviera' bermudagrass [4]; 0.28 kg/ha postemergence, sampled 0 to 35 DAT", "result": "only detected in mesotrione treated plants at 3, 7, and 14 DAT"}]}
